Results as given in patent publication US11779572B1, “Methods of treating gastrointestinal stromal tumors” (Deciphera Pharmaceuticals, LLC, priority 2022, dated 2023).

Tested on: GIST patients
Experiment: Example 2 study: treatment-emergent adverse events
Type: in vivo, human
Conditions: ≥100 mg daily
Description: Grade 3 or 4 treatment-emergent adverse events (TEAEs) in >5% of patients were lipase increased (18%; n=33), anemia (11%; n=20), hypertension (7%; n=13) and abdominal pain (6%; n=11). 13% of patients (n=24) experienced TEAEs leading to study treatment discontinuation, 17% of patients (n=31) experienced TEAEs leading to dose reduction and 49% of patients (n=88) had TEAEs leading to study drug interruption. Table 3 lists TEAEs >10% for GIST patients treated with ≥100 mg of ripretinib daily.

With `CCn1c(=O)c(-c2cc(NC(=O)Nc3ccccc3)c(F)cc2Br)cc2cnc(NC)cc21` [ripretinib] the “TEAE: Diarrhea” value (col c2 (no head; Grade 3 or 4)) was 3 (2%), the “TEAE: Dizziness” value (col c2 (no head; Grade 3 or 4)) was 0 (0%) and the “TEAE: Dry skin” value (col c2 (no head; Grade 3 or 4)) was 0 (0%). The “TEAE: Dysgeusia” value (col c2 (no head; Grade 3 or 4)) was 0 (0%), the “TEAE: Dyspnea” value (col c2 (no head; Grade 3 or 4)) was 4 (2%) and the “TEAE: Fatigue” value (col c2 (no head; Grade 3 or 4)) was 4 (2%). The “TEAE: Headache” value (col c2 (no head; Grade 3 or 4)) was 1 (1%), the “TEAE: Hypertension” value (col c2 (no head; Grade 3 or 4)) was 13 (7%) and the “TEAE: Hypokalaemia” value (col c2 (no head; Grade 3 or 4)) was 5 (3%). For the same molecule, the “TEAE: Hypomagnesaemia” value (col c2 (no head; Grade 3 or 4)) was 0 (0%), the “TEAE: Hypophosphataemia” value (col c2 (no head; Grade 3 or 4)) was 8 (5%) and the “TEAE: Insomnia” value (col c2 (no head; Grade 3 or 4)) was 0 (0%). The “TEAE: Lipase increased” value (col c2 (no head; Grade 3 or 4)) was 33 (18%), the “TEAE: Muscle spasms” value (col c2 (no head; Grade 3 or 4)) was 0 (0%) and the “TEAE: Myalgia” value (col c2 (no head; Grade 3 or 4)) was 0 (0%). The “TEAE: Nausea” value (col c2 (no head; Grade 3 or 4)) was 1 (1%), the “TEAE: Pain in extremity” value (col c2 (no head; Grade 3 or 4)) was 1 (1%) and the “TEAE: Palmar-plantar erythrodysaesthesia syndrome” value (col c2 (no head; Grade 3 or 4)) was 1 (1%). The “TEAE: Pruritus” value (col c2 (no head; Grade 3 or 4)) was 0 (0%), the “TEAE: Rash” value (col c2 (no head; Grade 3 or 4)) was 0 (0%) and the “TEAE: Rash maculo-papular” value (col c2 (no head; Grade 3 or 4)) was 0 (0%). The “TEAE: Seborrhoeic keratosis” value (col c2 (no head; Grade 3 or 4)) was 0 (0%), the “TEAE: Skin papilloma” value (col c2 (no head; Grade 3 or 4)) was 0 (0%) and the “TEAE: Upper respiratory tract infection” value (col c2 (no head; Grade 3 or 4)) was 0 (0%). The “TEAE: Urinary tract infection” value (col c2 (no head; Grade 3 or 4)) was 4 (2%), the “TEAE: Vision blurred” value (col c2 (no head; Grade 3 or 4)) was 0 (0%) and the “TEAE: Vomiting” value (col c2 (no head; Grade 3 or 4)) was 2 (1%). For the same molecule, the “TEAE: Weight decreased” value (col c2 (no head; Grade 3 or 4)) was 1 (1%), the “TEAE: Abdominal pain” value (col c3 (no head; c1+c2)) was 44 (25%) and the “TEAE: Actinic keratosis” value (col c3 (no head; c1+c2)) was 25 (14%). The “TEAE: Alopecia” value (col c3 (no head; c1+c2)) was 102 (57%), the “TEAE: Amylase increased” value (col c3 (no head; c1+c2)) was 21 (12%) and the “TEAE: Anemia” value (col c3 (no head; c1+c2)) was 38 (21%). For the same molecule, the “TEAE: Arthralgia” value (col c3 (no head; c1+c2)) was 40 (22%), the “TEAE: Back Pain” value (col c3 (no head; c1+c2)) was 32 (18%) and the “TEAE: Blood bilirubin increase” value (col c3 (no head; c1+c2)) was 21 (12%). For the same molecule, the “TEAE: Blood creatine phosphokinase increased” value (col c3 (no head; c1+c2)) was 18 (10%), the “TEAE: Constipation” value (col c3 (no head; c1+c2)) was 67 (37%) and the “TEAE: Cough” value (col c3 (no head; c1+c2)) was 37 (21%). For the same molecule, the “TEAE: Decreased appetite” value (col c3 (no head; c1+c2)) was 62 (35%), the “TEAE: Diarrhea” value (col c3 (no head; c1+c2)) was 53 (30%) and the “TEAE: Dizziness” value (col c3 (no head; c1+c2)) was 29 (16%). For the same molecule, the “TEAE: Dry skin” value (col c3 (no head; c1+c2)) was 37 (21%), the “TEAE: Dysgeusia” value (col c3 (no head; c1+c2)) was 20 (11%) and the “TEAE: Dyspnea” value (col c3 (no head; c1+c2)) was 36 (20%). The “TEAE: Fatigue” value (col c3 (no head; c1+c2)) was 98 (55%), the “TEAE: Headache” value (col c3 (no head; c1+c2)) was 34 (19%) and the “TEAE: Hypertension” value (col c3 (no head; c1+c2)) was 38 (21%). For the same molecule, the “TEAE: Hypokalaemia” value (col c3 (no head; c1+c2)) was 26 (15%), the “TEAE: Hypomagnesaemia” value (col c3 (no head; c1+c2)) was 18 (10%) and the “TEAE: Hypophosphataemia” value (col c3 (no head; c1+c2)) was 25 (14%). The “TEAE: Insomnia” value (col c3 (no head; c1+c2)) was 21 (12%), the “TEAE: Lipase increased” value (col c3 (no head; c1+c2)) was 51 (29%) and the “TEAE: Muscle spasms” value (col c3 (no head; c1+c2)) was 47 (26%). For the same molecule, the “TEAE: Myalgia” value (col c3 (no head; c1+c2)) was 79 (44%), the “TEAE: Nausea” value (col c3 (no head; c1+c2)) was 78 (44%) and the “TEAE: Pain in extremity” value (col c3 (no head; c1+c2)) was 19 (11%). The “TEAE: Palmar-plantar erythrodysaesthesia syndrome” value (col c3 (no head; c1+c2)) was 72 (40%), the “TEAE: Pruritus” value (col c3 (no head; c1+c2)) was 18 (10%) and the “TEAE: Rash” value (col c3 (no head; c1+c2)) was 27 (15%). The “TEAE: Rash maculo-papular” value (col c3 (no head; c1+c2)) was 18 (10%), the “TEAE: Seborrhoeic keratosis” value (col c3 (no head; c1+c2)) was 21 (12%) and the “TEAE: Skin papilloma” value (col c3 (no head; c1+c2)) was 17 (10%). The “TEAE: Upper respiratory tract infection” value (col c3 (no head; c1+c2)) was 18 (10%), the “TEAE: Urinary tract infection” value (col c3 (no head; c1+c2)) was 20 (11%) and the “TEAE: Vision blurred” value (col c3 (no head; c1+c2)) was 17 (10%). For the same molecule, the “TEAE: Vomiting” value (col c3 (no head; c1+c2)) was 44 (25%) and the “TEAE: Weight decreased” value (col c3 (no head; c1+c2)) was 52 (29%).
